Patent publication US8318504B2, “MRP2 efflux pathway prognostic method” (priority 2009, dated 2012)

Key:
OATP1B1 = biological target: T1, OATP1B1 (Homo sapiens, UniProt Q9Y6L6); experiment: Uptake of CLF into CHO cells expressing OATP1B1; format: cell-based; conditions: 1 μmol/L CLF, 1 or 5 minutes
T1 construct: expressed in transfected cells; host or cells: CHO cells (stably transfected; Treiber et al. 2007)
T1 sequence (Q9Y6L6 1-691): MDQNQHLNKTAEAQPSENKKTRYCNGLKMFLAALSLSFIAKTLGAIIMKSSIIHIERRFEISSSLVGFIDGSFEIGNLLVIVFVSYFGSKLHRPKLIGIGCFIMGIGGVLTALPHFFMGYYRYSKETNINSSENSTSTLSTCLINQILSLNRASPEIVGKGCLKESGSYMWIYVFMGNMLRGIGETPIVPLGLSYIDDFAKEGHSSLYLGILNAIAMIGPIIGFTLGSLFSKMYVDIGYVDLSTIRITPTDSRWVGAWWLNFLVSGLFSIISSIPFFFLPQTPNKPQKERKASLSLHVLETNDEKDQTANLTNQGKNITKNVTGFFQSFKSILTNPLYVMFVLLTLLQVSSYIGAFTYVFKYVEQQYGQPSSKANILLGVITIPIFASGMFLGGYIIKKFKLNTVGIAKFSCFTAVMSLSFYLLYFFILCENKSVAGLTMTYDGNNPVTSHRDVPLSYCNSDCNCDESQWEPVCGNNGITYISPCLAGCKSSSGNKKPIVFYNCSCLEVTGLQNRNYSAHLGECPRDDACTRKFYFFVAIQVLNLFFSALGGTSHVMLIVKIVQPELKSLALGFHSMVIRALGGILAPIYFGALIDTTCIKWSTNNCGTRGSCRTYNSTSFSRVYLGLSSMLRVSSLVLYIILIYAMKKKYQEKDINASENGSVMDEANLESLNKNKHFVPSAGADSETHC
Description: cDNA for human NTCP [Hagenbuch et al., J Clin Invest 1994 March; 93(3): 1326-1331] was cut with EcoRV and HindI and the coding region ligated into pcDNA5/FRT (Invitrogen, Life-Technologies, Carlsbad, Calif.). CHO FlpIn cells (Invitrogen, Life-Technologies) were transfected with the resulting construct using Lipofectamine® 2000 (Invitrogen, Life-Technologies). Stably transfected cells were selected with 550 μg Hygromycin-B in HAM-F12 medium (Gibco, Invitrogen, Life-Technologies). Transfected cells were cloned with the limiting dilution method. […] To further characterize the cloned cells, immunofluorescence localization of NTCP using a polyclonal antibody against NTCP [Kullak-Ublick G et al., Gastroenterology 1997 October; 113(4):1295-1305] was performed as described by Huber R D et al. [Am J Physiol Cell Physiol 2007 February; 292(2):[…]-[…]]. CHO cells expressing OATP1B1, OATP1B3 and OATP2B1 were described previously [Treiber et al., DMD 35:1400-1407, 2007]. […] After complete solubilization, 1.5 ml was used to measure fluorescence in a Perkin-Elmer LS-5 luminescence-spectrometer set at λexe 486 nm (slit 10 nm) and λem 520 nm (slit 5 nm). Protein was determined with the bicinchoninic acid method using a kit from Interchim (Montfuçon, France). […]

wild type CHO cells = experiment: Effect of CLF on substrate uptake in wild type CHO cells; format: cell-based
Description: For all transport experiments, cells grown on 3 cm culture dishes were cultured for 24 hours in media supplemented with 5 mmol/L sodium-butyrate to increase expression levels of transfected transporters [Palermo D P et al., J Biotechnol 1991 June; 19(1):35-47]. • Transport experiments with uptake of radioactively labeled substrates: These experiments were performed as described by Huber R D et al. [Am J Physiol Cell Physiol 2007 February; 292(2):C795-C806]. • Transport experiments with uptake of CLF: Uptake was performed in the same buffers as for the radioactive substrates above. For visualization of CLF uptake, cells were immediately inspected with a Leica-DM-IRBE-inverted-microcope (Leica-Microsystems, Wetzlar, Germany) equipped with a Hamamatsu-ORKA-ER-camera (Hamamatsu-Photonoics, Japan). To determine uptake of CLF, cells were solubilized by the addition of 2 ml 1% (w/v) Triton-X-100. After complete solubilization, 1.5 ml was used to measure fluorescence in a Perkin-Elmer LS-5 luminescence-spectrometer set at λexe 486 nm (slit 10 nm) and λem 520 nm (slit 5 nm). Protein was determined with the bicinchoninic acid method using a kit from Interchim (Montfuçon, France). Transport data from OATP expressing cell lines were corrected for binding by subtracting 0 min time points (blank values) and except for FIGS. 2B and 2C were normalized per minute. […]

CC(CCC(=O)NC(CCCCNC(=S)Nc1ccc(-c2c3ccc(=O)cc-3oc3cc(O)ccc23)c(C(=O)O)c1)C(=O)O)C1CCC2C3C(O)CC4CC(O)CCC4(C)C3CC(O)C12C (centres unmarked) [CLF, cholyl lysyl fluorescein]
uptake of CLF into OATP1B1 cells (OATP1B1): very weak but consistent
influence of CLF on substrate uptake in wild type cells (wild type CHO cells): no influence on substrate uptake
